From patent US7407948B2, “Photosensitisers and their uses” (priority 2007, dated 2008)
Like-named read-outs stand apart in the source and are kept apart here.

Assays:
S. aureus = experiment: Photoinactivation of bacteria by phenoselenazinium derivatives (S. aureus); format: cell-based; settings: 10 μM photosensitiser, 30 min 37° C., 665 nm laser, 3 J/cm^2 (10 mW/cm^2)
Protocol: (§1) 1 mM stock solutions of the photosensitisers were made up by solubilising the photosensitiser in dimethyl sulfoxide.
(§2) Bacteria (E. coli, S. aureus) and yeast (C. albicans) cells were grown at 37° C. until the cells reached the logarithmic growth phase. Bacterial cells were grown in nutrient media, yeast cells were grown in Sabouraud media (obtainable via Millipore Limited, Watford, England).
(§3) Following the incubation, the log phase cells were washed twice in 0.1 M pH7.0 potassium phosphate buffer. The cells were then resuspended in buffer to give 3.5×10^8 CFU/ml for E. coli and S. aureus, or 1.0×10^7 CFU/ml for C. albicans.
(§4) The cells were incubated for 30 min at 37° C. with 10 μM photosensitiser. Following the incubation 2 mL of the cell suspension was removed into a 30 mm sterile Petri dish. The cell containing dish was then illuminated with a 665 nm Ceramoptec diode laser (trade mark of Ceramoptec GmBH, Germany and obtainable from Biolitec, Germany), at a light dose of 3 J/cm^2 (10 mW/cm^2).
(§5) Cells of the illuminated and non illuminated cultures were serially diluted and plated on either: nutrient agar (E. coli and S. aureus) or sabouraud agar (C. albicans). The plates were incubated for 24 h (E. coli and C. albicans) or 48 h (S. aureus). The colonies on the plates were counted as a measure of cell survival.

E. coli = experiment: Photoinactivation of bacteria by phenoselenazinium derivatives (E. coli); format: cell-based; settings: 10 μM photosensitiser, 30 min 37° C., 665 nm laser, 3 J/cm^2 (10 mW/cm^2)
Protocol: as §1, §2, §3, §4, §5

C. albicans = experiment: Photoinactivation of yeast by phenoselenazinium derivatives (C. albicans); format: cell-based; settings: 10 μM photosensitiser, 30 min 37° C., 665 nm laser, 3 J/cm^2 (10 mW/cm^2)
Protocol: as §1, §2, §3, §4, §5

[1] = Singlet oxygen yield relative to Methylene Blue; format: physicochemical; settings: in methanol, relative to MB
[2] = Partition coefficient log P; format: physicochemical; settings: 2-octanol/0.1 M aqueous potassium phosphate at pH 7
Source text: Partition coefficient (2-octanol/0.1 M aqueous potassium phosphate at pH 7): log P=>2.

[3] = system: subcutaneous CaNT tumours; experiment: Anti-tumour efficacy in vivo (PDT, tumour necrosis); set-up: species or system CBA/gy mice; settings: 60 J/cm^2 660±15 nm, 72 h after illumination
Protocol: (§6) Tumour destruction was assessed in CBA/gy mice bearing subcutaneous CaNT tumours. The photosensitiser was administered intravenously at doses up to 16.7 μmol/kg. At various times after photosensitiser administration, the tumour was illuminated superficially with 60 J/cm^2, 50 mW/cm^2 light from a Paterson lamp using a 660±15 nm filter. Drug-light intervals ranged from 0 h (in practice, 1-2 minutes) up to 96 h. 72 h after illumination a cross sectional slice was removed from the centre of the tumour parallel to the incident light, an image of this was captured and the macroscopic necrotic area quantified using image analysis software. Necrosis was expressed as % area of the total tumour slice. % tumour necrosis in control tumours was generally <10%.
(§7) The phenoselenazinium compounds were dissolved and administered in a composition comprising 25% Solutol, 10% ethanol, 65% saline vehicle.

[4] = system: normal tissues surrounding the tumour (usually kidney); format: in vivo; settings: arbitrary score 0-3, i.v. dose 1.67 μmol/Kg
Protocol: as §6
An arbitrary score 0-3 of the severity of damage to normal tissues surrounding the tumour (usually kidney) was also recorded. 0=no detectable damage; 1=minimal damage to one organ; 2=damage to more than one organ; 3=death
as §7

[5] = i.v. dose 1.67 μmol/Kg, drug to light interval 0 h
[6] = i.v. dose 1.67 μmol/Kg, drug to light interval 1 h
[7] = i.v. dose 8.4 μmol/Kg, drug to light interval 1 h

Row | SMILES | Log change in CFU/mL (S. aureus) | Log change in CFU/mL (E. coli) | Log change in CFU/mL (C. albicans) | Singlet oxygen yield (relative to Methylene Blue) [1] | logP [2] | % tumour necrosis [3, 5] | % tumour necrosis [3, 6] | % tumour necrosis ([3]; i.v. dose 0.84 μmol/Kg, drug to light interval 0 h) | % tumour necrosis ([3]; i.v. dose 0.84 μmol/Kg, drug to light interval 1 h) | % tumour necrosis ([3]; i.v. dose 8.4 μmol/Kg, drug to light interval 0 h) | % tumour necrosis [3, 7] | % tumour necrosis ([3]; i.v. dose 16.7 μmol/Kg, drug to light interval 0 h) | Normal tissue damage ([4]; drug to light interval 0 h) | Normal tissue damage ([4]; drug to light interval 1 h) | % tumour necrosis ([3]; i.v. dose 4.18 μmol/Kg, drug to light interval 0 h) | % tumour necrosis ([3]; i.v. dose 6.26 μmol/Kg, drug to light interval 0 h) | % tumour necrosis ([3]; i.v. dose 8.34 μmol/Kg, drug to light interval 0 h)
1 | CCN(CC)c1ccc2nc3ccc(N(CC)CC)cc3[se+]c2c1 [Compound 3, 3,7-Bis-(N,N-diethylamino)phenoselenazin-5-ylium iodide] | 2.72 (0.87) log CFU/mL | 3.78 (0.28) log CFU/mL | 0.16 (0.22) log CFU/mL | 1.5 | 1.5 | 0% | 0% |  |  |  |  |  |  |  |  |  | 
2 | CCCCN(CCCC)c1ccc2nc3ccc(N(CCCC)CCCC)cc3[se+]c2c1 [Compound 1, 3,7-Bis-(N,N-dibutylamino)phenoselenazin-5-ylium bromide] | 0.21 (0.01) log CFU/mL | 5.48 (0.34) log CFU/mL | 0.00 (0.05) log CFU/mL | 0.9 | > 2 | 88% | 88% | 93% | 40% |  |  |  |  |  |  |  | 
3 | CCCCN(CCCC)c1ccc2nc3ccc(N(CCC)CCC)cc3[se+]c2c1 [Compound 6, 3-N,N-dibutylamino-7-N,N-dipropylamino-phenoselenazin-5-ylium iodide] | 2.66 (2.26) log CFU/mL | 6.54 (0.00) log CFU/mL | 6.12 (0.82) log CFU/mL | 1.1 | > 2 | 75% | 15% |  |  |  |  |  |  |  |  |  | 
4 | CCCN(CCC)c1ccc2nc3ccc(N(CCC)CCC)cc3[se+]c2c1 [Compound 2, 3,7-Bis-(N,N-dipropylamino)phenoselenazin-5-ylium iodide] | 1.70 (0.48) log CFU/mL | 3.16 (0.03) log CFU/mL | 0.35 (0.42) log CFU/mL | 1.1 | > 2 | 55% |  |  |  | 87% | 17% | 100% |  |  |  |  | 
5 | CN(C)c1ccc2nc3ccc(N(C)C)cc3[se+]c2c1.[I-] [Compound A, 3,7-N,N-dimethylamino-phenoselenazin-5-ylium iodide, reference compound] | 1.74 (0.41) log CFU/mL | 3.33 (0.01) log CFU/mL | 0.19 (0.06) log CFU/mL |  |  | 0% | 0% |  |  |  |  |  | 0 | 0 |  |  | 
6 | CCCCCCN(CCCCCC)c1ccc2nc3ccc(N(CCCCCC)CCCCCC)cc3[se+]c2c1 [Compound 5, 3,7-Bis-(N,N-dihexylamino)phenoselenazin-5-ylium iodide] | 0.18 (0.12) log CFU/mL | 0.02 (0.13) log CFU/mL | −0.03 (0.03) log CFU/mL | 1.1 | > 2 | 0% |  |  |  |  | 30% |  |  |  |  |  | 
7 | CCCCCN(CCCCC)c1ccc2nc3ccc(N(CCCCC)CCCCC)cc3[se+]c2c1 [Compound 4, 3,7-Bis-(N,N-dipentylamino)phenoselenazin-5-ylium iodide] | 0.95 (0.73) log CFU/mL | 3.66 (2.23) log CFU/mL | 0.17 (0.02) log CFU/mL | 1.4 | > 2 | 10% |  |  |  |  |  |  |  |  | 45% | 80% | 80%
